# Results reported in patent publication US20100048921A1, “PHARMACEUTICALLY ACTIVE COMPOUNDS” (priority 2007, published 2010).
# Tested on: thrombocytes (platelet-rich plasma)
# Test: Collagen-induced thrombocyte aggregation in platelet-rich plasma (aggregometry, PAP-8E)
# Type: cell-based, human
# Conditions: for End point (FA) / Maximum aggregation (MA): substance 50 μM
# Description: The substances used, genistein, glu-glu, DMSO, ala-ala were provided by the company Sigma-Aldrich, Munich. For the measurement, the Platelet Aggregation Profiler Model PAP-8E of the company Bio/Data Corporation, an 8-channel aggregometer with a computerised digital curve creation, has been used.
# After the taking of a blood sample from a large calibre vein in unbuffered citrate 10%, the whole blood which is achieved by this is centrifugated with about 1,500 RPM for 10 min. The platelet-rich plasma (PRP) which is achieved by this then has to rest for 45 min. at ambient temperature. At the same time, […] for the creation of the respective blank values is gained from the same sample with common centrifugation. For the measurement, cuvettes with a volume of 0.25 ml are used.
# Stock solutions of the substances to be tested, including genistein as well as the peptides ala-ala and glu-glu which are used, are prepared in a ratio of 1 mg on 1 ml, genistein as well as the tested coupling products in DMSO, glu-glu and ala-ala in H2O.
# [1] = collagen 1 μg/ml, listed as genistein
smiles,measurement,setting,value
"O=c1c(-c2ccc(O)cc2)coc2cc(O)cc(O)c12 [Genistein, genistein]",active concentration which starts to be effective,"collagen-induced aggregation, own specification",50 µM
same,aggregation of the platelets,"genistein 50 μM, collagen 1 μg/ml, reference (no additive) 90%",82%
same,aggregation,"genistein 100 μM, collagen 1 μg/ml, reference (no additive) 90%",50%
same,thrombocyte aggregation,"genistein 200 μM, collagen 1 μg/ml",almost completely inhibited
same,End point (FA),collagen 1 μg/ml,82%
same,Maximum aggregation (MA),collagen 1 μg/ml,85%
same,End point (FA),[1],82%
same,Maximum aggregation (MA),[1],85%
